Molecules are shown by their SMILES.

The nature of data set [1]: drug stability in simulated gastric fluid. In kind it is physicochemical. The following applies: SGF pH 1.2, 37° C., 24 hour duration; HPLC-UV. As for the experimental part:
Given that the tested residence device is designed to reside in the stomach for an extended period, the drug stability was analyzed in simulated gastric fluid (0.2% w/v sodium chloride, and 0.7% w/v hydrochloric acid, adjusted to pH-1.2; referred to as SGF). Moxifloxacin was dissolved in SGF and placed at 37° C. At various times, part of the solution was aliquoted and stored at about −20° C. until further analysis. For carbamazepine, the drug was first dissolved in methanol and then diluted in SGF (at least 100-fold). At various times, part of the solution was collected and stored at −20° C. On completion of the study, drug concentration in the various aliquots was measured using high performance liquid chromatography-ultraviolet (HPLC-UV) analysis (High Performance Liquid Chromatography).

Data set [2] in a line: drug stability at elevated temperature. In kind it is physicochemical. The following applies: 120° C., may be reached during manufacturing of the dosage form.
Experimental: Additionally, drug stability was evaluated for an elevated temperature of 120° C. which may be reached during the manufacturing of the dosage form.
Data set [3] is described as follows: in vitro drug release from drug-polymer matrices in simulated gastric fluid. To be noted: addition of water soluble polymers such as PEG 3350 and Kolliphor P 407 to the polymer matrix; SGF with 5% (w/v) Tween 20. In kind it is physicochemical. As for the experimental part:
To perform the release study, drug-polymer matrices ( 1 cm in length) were incubated with 50 ml of the respective release medium in a 37° C. incubator shaker at 50 rpm. At various times, 1 ml of the release medium was collected and stored at -20° C. until further analysis. The remaining medium was discarded, and the arms were incubated with fresh medium. For measuring drug concentrations in the release medium, all specimens (beam-like arms) were thawed, centrifuged at 1500 g for 10 min, and analyzed using high-performance liquid chromatography (HPLC). Depending on the drug used, the links had excipients and elasticizers added to enhance the drug release and mechanical properties, respectively. For both moxifloxacin ([…], Inc) and carbamazepine (Ark Pharm, Inc), poly(ethylene glycol) (PEG) (molecular weight-3350 Da, Spectrum Corp.), Kolliphor® P 407 (BASF), and EUDRAGIT® E PO (Evonik) were used as excipients. For carbamazepine, CarbothaneTM TPU P[…] was used as an elasticizer. For X-ray visualization, 15% weight ratio of BaSO4 was added. Various polymeric formulations were investigated for controlled release of the drugs. The in vitro drug release was also investigated by changing drug loading and the composition of excipients, as well as application of polymeric coating (using a solution of 5.4% PCL (w/v) and 0.6% EUDRAGIT® E PO (w/v) in acetone). […]

A short description of data set [4]: solubility in simulated gastric fluid. In kind it is physicochemical.
Data set [5] is described as follows: in vivo prolonged drug delivery, blood concentration versus time. Set-up: species or system Yorkshire pigs. The following applies: pigs. On the procedure: To evaluate the ability of residence devices loaded with the selected carbamazepine formulation to achieve gastric retention, the above described residence device was administered to a large animal model (three 35 to 50 kg Yorkshire pigs for each drug). Following overnight fasting and sedation of the animals, an overtube (US Endoscopy), with endoscopic guidance, was placed into the stomach to facilitate direct gastric delivery of the residence device. A residence devices folded into a cylindrical shape of length 20 cm and diameter of 12 mm (see the folded configuration in FIG. 1A) was administered via the overtube into the stomach of each pig, and the overtube was then removed. […] Serial radiographs were performed immediately afterwards and every 48-72 hours to monitor the integrity and transit of the devices as well as any radiographic evidence of bowel obstruction. In addition, animals were monitored clinically at least twice a day for any evidence of morbidity, including lethargy, inappetence, decreased fecal output, abdominal distension and vomiting. […] Endoscopic evaluation of the stomach over the course of the study was performed to further explore the stomach and ensure the absence of any ulceration or injury. Blood samples were taken at the following time points, 0 min (before administration of the dosage form), 5 min, 15 min, 30 min, 2 hours, 6 hours, daily for a minimum of 5 days, and then three times for the second week from peripheral veins under sedation.
One hundred microliters of each blood sample was spiked with 200 μl of 250 ng/mL internal standard (imipramine for carbamazepine) with acetonitrile added to elicit protein precipitation. Samples were vortexed, sonicated, and centrifuged prior to being pipetted into a well plate containing 200 μl of nanopure water. Finally, the samples were injected into an Ultra Performance Liquid Chromatography tandem mass spectrometry (UPLC-MS/MS) for analysis.

With `COc1c(N2C[C@@H]3CCCN[C@@H]3C2)c(F)cc2c(=O)c(C(=O)O)cn(C3CC3)c12` [moxifloxacin], the “stability in SGF” value in data set [1] is listed as “stable”. Also, the “drug degradation at elevated temperature” value in data set [2] was “no appreciable drug degradation”.
With `NC(=O)N1c2ccccc2C=Cc2ccccc21` [carbamazepine], in data set [3], the “increase in release of carbamazepine” value is on record as “greater than 3 fold”. In data set [1], the “stability in SGF” value is “stable”. Moreover, the “drug degradation at elevated temperature” value in data set [2] was “no appreciable drug degradation”. The “solubility in simulated gastric fluid (SGF)” value in data set [4] is “limited solubility”. Moreover, the “carbamazepine concentration versus time profile” value in data set [5] (14 day residence time, UPLC-MS/MS) is “initial spike in concentration was observed in the first day followed by relatively uniform concentrations”. Further, in data set [5] (residence device), the “area under the curve as compared to immediate release formulations” value is reported as “enhanced area under the curve” and the “maximum concentration as compared to immediate release formulations” value is recorded as “lower maximum concentration”. In data set [5] (residence device, direct gastric delivery), the “duration of drug delivery after a single administration” value is “up to 14 days”.

Source of the values: patent publication US11648381B2, “Thermally controlled residence devices” (Massachusetts Institute of Technology, priority 2018, dated 2023).
